According to US20260240915A1, “USE OF EXTRACELLULAR VESICLES FOR THE TREATMENT OF CANCER” (HENRY FORD HEALTH SYSTEM, priority 2023, published 2026):
“Also recorded” adds a separate entry of the source.

Tests used:
[1] = test system: primary liver cancer cells taken from patients; assay: Viability of primary liver cancer cells from HCC patients
[2] = test system: HepG2 hepatocellular carcinoma cells; assay: MTT cell viability assay, HepG2; assay type: cell-based; conditions: for effect of inhibitor alone on cancer viability: CPZ 2.5 to 10 μg/ml, nystatin 5 to 30 μM
Excerpt: (§1) Based on preliminary research, we hypothesized that under duress, cells and cell lines might generate exosomes that are deleterious specifically to malignant cells and tissue. We also speculated that exosomes could be loaded with specific microRNA (mi-RNA) that might further enhance anti-cancer activity and specificity. We initiated studies with human cerebral endothelial cells (HCEC) because […], endothelial cells would be able to release exosomes directly into the systemic circulation where they could travel to cancer sites. The initial mechanism of cellular stress we chose for the HCEC cells was oxygen-glucose deprivation (OGD). HCEC cells were exposed to OGD deprivation for a period of four hours and then exosomes were harvested and purified (See methods). HCEC cells exposed to OGD deprivation for longer than four hours started to lose viability. The “4 h-OGD-exosomes” were then tested for their effect on the viability of hepatocellular cancer cell lines, HepG2 and Hep3B, and on the benign liver cell line, THLE-2. To assay the cell viability of target cells, we used the MTT (3-(4,5-Dimethylthiazol-2-yl)-2,5-diphenyltetrazolium bromide) assay (See Methods). All cancer lines used in all of the studies are outlined in Table 1.
(§2) Cells were cultured in medium with indicated treatment.

[3] = test system: Hep3B hepatocellular carcinoma cells; assay: MTT cell viability assay, Hep3B; assay type: cell-based; conditions: for effect of inhibitor alone on cancer viability: CPZ 2.5 to 10 μg/ml, nystatin 5 to 30 μM; for effect of inhibitor pretreatment on the anti-cancer effect of Hypo-Exo: pretreatment with endocytosis inhibitor, then Hypo-Exo
Excerpt: as §1, §2

[4] = test system: benign THLE-2 liver cell line; assay: MTT cell viability assay, THLE-2; assay type: cell-based; conditions: benign liver cells
Excerpt: as §1, §2

[5] = test system: hepatitis B-related HCC patients; conditions: treatment group, advanced stage patients; cited from earlier work
HCC patients = conditions: study of 600 patients; cited from earlier work

For O=C1[O][Pt]2([NH][C@@H]3CCCC[C@H]3[NH]2)[O]C1=O [oxaliplatin], the “decrease in viability of primary liver cancer cells” value ([1]; OGD-Exo 10^8 p/ml, oxaliplatin 0.06125 µM, Sorafenib 1.20 μM, Pt.011 and Pt.012) was “approximately 20%”.

With CNC(=O)c1cc(Oc2ccc(NC(=O)Nc3ccc(Cl)c(C(F)(F)F)c3)cc2)ccn1 [Sorafenib] the viability at 1.2 µM ([2]; Homo sapiens, HepG2, Hypo-Exo 10^8 p/ml, Sorafenib 1.2 μM) was 67.4%, the viability at 0.8 µM ([3]; Homo sapiens, Hep3B, Hypo-Exo 10^8 p/ml, Sorafenib 0.8 µM) was 80.5% and the “effect on cell viability” value [4] was “negligible impact”. The median overall survival [5] was 6.5 months, the increase in survival (HCC patients) was “three” and the cytotoxicity at 1.2 µM ([1]; Homo sapiens, read-out: decrease in viability of primary liver cancer cells) was 42 to 44%.

For CN(C)CCCN1c2ccccc2Sc2ccc(Cl)cc21 [CPZ, chlorpromazine], the “effect of inhibitor alone on cancer viability” value (“effect of inhibitor alone” below) [2] was “did not affect cancer viability”, the “effect of inhibitor pretreatment on the anti-cancer effect of Hypo-Exo” value (“effect of inhibitor pretreatment” below) ([2]; pretreatment with endocytosis inhibitor, then Hypo-Exo) was “significantly attenuated the anti-cancer effect of Hypo-Exo; also recorded: blunt the anti-tumor effect of Hypo-Exo” and the “effect of inhibitor alone” value [3] was “did not affect cancer viability”. The “effect of inhibitor pretreatment” value [3] was “significantly attenuated the anti-cancer effect of Hypo-Exo”.

In the case of C[C@@H]1[C@H](O)[C@@H](C)/C=C/C=C/CC/C=C/C=C/C=C/C=C/C(O[C@H]2O[C@H](C)[C@@H](O)[C@H](N)[C@@H]2O)CC2O[C@](O)(CC(O)C(O)CCC(O)CC(O)CC(O)CC(=O)O[C@H]1C)CC(O)C2C(=O)O (some centres unmarked) [nystatin], the “effect of inhibitor alone” value [2] is reported as “did not affect cancer viability”, the “effect of inhibitor alone” value [3] is reported as “did not affect cancer viability” and the “effect of inhibitor pretreatment” value [3] is reported as “significantly diminished the anti-cancer effect of Hypo-Exo; also recorded: blunts the effect of Hypo-Exo”.
